Entries after “also recorded” stand apart in the source; their conditions may differ.
Tests used:
Nav 1.5 = Nav 1.5 (Homo sapiens, UniProt Q14524); conditions: cited from earlier work
Nav 1.8 = Nav 1.8 (Homo sapiens, UniProt Q9Y5Y9); conditions: cited from earlier work
Nav 1.9 = Nav 1.9 (Homo sapiens, UniProt Q9UI33); conditions: cited from earlier work
[1] = tested on: primary cultures of neurones from spinal ganglia of KO mice for Nav 1.9; assay: Release of CGRP by primary neurone cultures after treatment with capsaicin (ELISA), Nav 1.9 KO mice; format: cell-based, mouse; conditions: capsaicin 300 nM, 15 min; neurone cultures from Nav 1.9 KO mice; versus without treatment

Sequence of Nav 1.9 (Q9UI33 whole entry, looked up): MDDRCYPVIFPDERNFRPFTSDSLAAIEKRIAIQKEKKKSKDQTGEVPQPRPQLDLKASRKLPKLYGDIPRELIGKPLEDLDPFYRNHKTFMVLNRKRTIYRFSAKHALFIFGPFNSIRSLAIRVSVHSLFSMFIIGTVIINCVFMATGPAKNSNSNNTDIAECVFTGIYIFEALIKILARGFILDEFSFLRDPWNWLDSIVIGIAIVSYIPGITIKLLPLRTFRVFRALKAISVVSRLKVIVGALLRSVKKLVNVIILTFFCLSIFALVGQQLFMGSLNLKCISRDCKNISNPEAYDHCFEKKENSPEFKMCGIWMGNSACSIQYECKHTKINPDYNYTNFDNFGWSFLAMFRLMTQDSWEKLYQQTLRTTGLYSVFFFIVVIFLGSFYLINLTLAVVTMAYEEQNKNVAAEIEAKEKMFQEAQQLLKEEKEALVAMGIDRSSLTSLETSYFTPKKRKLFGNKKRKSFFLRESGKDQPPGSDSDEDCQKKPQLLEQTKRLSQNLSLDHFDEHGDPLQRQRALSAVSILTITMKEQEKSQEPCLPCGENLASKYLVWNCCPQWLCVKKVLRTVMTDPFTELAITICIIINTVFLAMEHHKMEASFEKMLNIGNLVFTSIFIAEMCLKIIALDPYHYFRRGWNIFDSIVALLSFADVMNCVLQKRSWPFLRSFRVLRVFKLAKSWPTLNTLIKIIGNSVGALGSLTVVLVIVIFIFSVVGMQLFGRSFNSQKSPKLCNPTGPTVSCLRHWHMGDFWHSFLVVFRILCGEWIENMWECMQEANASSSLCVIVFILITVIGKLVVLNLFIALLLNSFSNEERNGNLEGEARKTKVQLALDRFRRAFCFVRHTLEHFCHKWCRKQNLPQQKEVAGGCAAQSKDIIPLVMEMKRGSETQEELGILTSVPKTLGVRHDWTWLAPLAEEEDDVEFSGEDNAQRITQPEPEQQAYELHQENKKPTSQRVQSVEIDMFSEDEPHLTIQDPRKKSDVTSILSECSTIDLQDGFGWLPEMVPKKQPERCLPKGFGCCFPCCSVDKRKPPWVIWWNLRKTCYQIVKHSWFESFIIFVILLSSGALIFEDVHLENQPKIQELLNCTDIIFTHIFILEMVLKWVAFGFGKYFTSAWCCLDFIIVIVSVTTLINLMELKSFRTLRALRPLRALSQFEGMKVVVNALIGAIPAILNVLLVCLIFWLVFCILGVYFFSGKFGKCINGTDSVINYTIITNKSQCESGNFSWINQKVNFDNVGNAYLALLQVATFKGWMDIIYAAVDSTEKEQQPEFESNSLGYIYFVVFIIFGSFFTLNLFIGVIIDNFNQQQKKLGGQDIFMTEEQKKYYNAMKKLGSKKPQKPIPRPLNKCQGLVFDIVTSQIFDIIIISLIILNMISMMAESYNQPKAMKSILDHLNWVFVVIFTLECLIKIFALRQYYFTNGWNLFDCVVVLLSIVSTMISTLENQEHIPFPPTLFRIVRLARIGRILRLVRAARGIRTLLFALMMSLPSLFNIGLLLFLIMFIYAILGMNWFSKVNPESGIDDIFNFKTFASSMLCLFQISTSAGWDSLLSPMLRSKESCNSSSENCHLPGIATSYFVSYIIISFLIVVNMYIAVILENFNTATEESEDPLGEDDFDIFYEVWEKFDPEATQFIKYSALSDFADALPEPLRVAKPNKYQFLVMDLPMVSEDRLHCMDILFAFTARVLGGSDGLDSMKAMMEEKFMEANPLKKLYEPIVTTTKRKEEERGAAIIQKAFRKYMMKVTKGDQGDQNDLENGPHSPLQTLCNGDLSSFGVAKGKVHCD
Sequence of Nav 1.8 (Q9Y5Y9 whole entry, looked up): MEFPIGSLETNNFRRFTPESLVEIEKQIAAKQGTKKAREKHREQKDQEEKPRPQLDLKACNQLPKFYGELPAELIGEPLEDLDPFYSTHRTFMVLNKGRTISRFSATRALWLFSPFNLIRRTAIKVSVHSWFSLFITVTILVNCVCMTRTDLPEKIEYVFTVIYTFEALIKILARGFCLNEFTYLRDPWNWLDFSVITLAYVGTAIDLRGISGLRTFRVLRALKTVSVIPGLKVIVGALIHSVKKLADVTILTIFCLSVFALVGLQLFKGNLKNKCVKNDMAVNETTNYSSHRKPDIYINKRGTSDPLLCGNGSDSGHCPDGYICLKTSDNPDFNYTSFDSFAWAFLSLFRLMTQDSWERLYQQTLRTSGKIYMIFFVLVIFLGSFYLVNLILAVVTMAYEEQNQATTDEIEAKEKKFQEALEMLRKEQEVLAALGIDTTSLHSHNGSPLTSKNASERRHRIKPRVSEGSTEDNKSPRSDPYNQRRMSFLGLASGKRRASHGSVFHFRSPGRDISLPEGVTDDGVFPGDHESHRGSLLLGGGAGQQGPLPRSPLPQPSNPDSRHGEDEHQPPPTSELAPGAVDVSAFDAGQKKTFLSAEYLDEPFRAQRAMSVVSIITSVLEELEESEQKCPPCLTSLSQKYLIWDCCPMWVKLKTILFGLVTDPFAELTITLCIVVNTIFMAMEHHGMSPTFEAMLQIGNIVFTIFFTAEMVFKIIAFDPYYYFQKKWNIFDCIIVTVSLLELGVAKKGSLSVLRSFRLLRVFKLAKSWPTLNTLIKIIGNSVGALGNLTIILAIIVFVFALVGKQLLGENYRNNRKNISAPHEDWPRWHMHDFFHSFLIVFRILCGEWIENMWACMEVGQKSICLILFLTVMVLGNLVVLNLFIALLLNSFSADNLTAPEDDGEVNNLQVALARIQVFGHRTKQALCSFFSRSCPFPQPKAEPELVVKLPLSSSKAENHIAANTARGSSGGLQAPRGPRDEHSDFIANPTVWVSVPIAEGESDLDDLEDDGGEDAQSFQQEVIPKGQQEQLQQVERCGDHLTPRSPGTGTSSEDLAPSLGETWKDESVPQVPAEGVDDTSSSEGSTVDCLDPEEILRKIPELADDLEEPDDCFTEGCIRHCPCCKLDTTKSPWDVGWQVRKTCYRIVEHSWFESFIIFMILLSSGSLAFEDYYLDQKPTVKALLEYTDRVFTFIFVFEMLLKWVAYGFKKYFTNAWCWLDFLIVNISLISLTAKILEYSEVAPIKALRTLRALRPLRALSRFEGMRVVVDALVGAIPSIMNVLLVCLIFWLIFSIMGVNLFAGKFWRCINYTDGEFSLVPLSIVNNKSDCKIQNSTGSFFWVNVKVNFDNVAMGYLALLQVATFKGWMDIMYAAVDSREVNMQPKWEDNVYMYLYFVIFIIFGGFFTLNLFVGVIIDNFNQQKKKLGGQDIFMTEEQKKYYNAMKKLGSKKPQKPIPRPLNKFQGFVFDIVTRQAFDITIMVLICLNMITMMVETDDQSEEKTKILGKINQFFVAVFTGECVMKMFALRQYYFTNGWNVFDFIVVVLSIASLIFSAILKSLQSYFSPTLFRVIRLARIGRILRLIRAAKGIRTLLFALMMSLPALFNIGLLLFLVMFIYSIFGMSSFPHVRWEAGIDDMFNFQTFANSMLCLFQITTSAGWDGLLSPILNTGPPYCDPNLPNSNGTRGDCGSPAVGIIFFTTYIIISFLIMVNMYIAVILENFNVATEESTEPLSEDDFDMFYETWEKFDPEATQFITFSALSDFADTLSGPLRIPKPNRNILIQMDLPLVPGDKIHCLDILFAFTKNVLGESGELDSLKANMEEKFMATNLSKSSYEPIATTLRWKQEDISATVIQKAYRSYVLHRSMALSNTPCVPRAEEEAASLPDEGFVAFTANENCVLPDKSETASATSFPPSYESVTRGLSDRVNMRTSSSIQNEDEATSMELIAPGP

Row | SMILES | sensitivity to tetrodotoxin (TTX) (Nav 1.5) | sensitivity to tetrodotoxin (TTX) (Nav 1.8) | sensitivity to tetrodotoxin (TTX) (Nav 1.9) | EC50 (Nav 1.9; read-out: EC50 of the TTX for Nav 1.9) | variation in the amount of CGRP released in the supernatant [1]
1 | NC1=N[C@H](O)[C@H]2[C@H]3O[C@]4(O)O[C@@H]([C@@H](O)[C@@]2(N1)[C@@H]4O)[C@]3(O)CO [TTX, tetrodotoxin] | resistant | resistant | resistant | ~200 µM | –
2 | COc1cc(CNC(=O)CCCC/C=C/C(C)C)ccc1O [capsaicin] | – | – | – | – | no variation; also recorded: no increase

Source: patent US9944699B2, “In vitro method for identifying compounds of the Nav 1.9 sodium channel intended for the treatment of an inflammatory skin disease” (GALDERMA RESEARCH & DEVELOPMENT, priority 2013, dated 2018)
